Values quoted from earlier work as cited in patent publication US4966768A, “Sustained release etodolac” (priority 1988, dated 1990).
Entries after “also recorded” stand apart in the source; their conditions may differ.

How the values were obtained:
[1] = in vivo
adjuvant arthirtis = conditions: reported in U.S. Pat. No. 4,533,551

For CCc1cccc2c3c([nH]c12)C(CC)(CC(=O)O)OCC3 (centres unmarked) [Etodolac, 1,8-diethyl-1,3,4,9-tetrahydropyrano[3,4-b] indole-1-acetic acid], the “reported pharmacological properties (in words)” value [1] is given as “analgesic and anti-inflammatory properties”, the “activity in adjuvant arthritis (in words)” value (adjuvant arthirtis) is given as “active in the treatment of adjuvant arthirtis” and the “aqueous solubility (in words)” value (below pH 3) is given as “very low and pH independent below pH 3; also recorded: water insoluble to an appreciable extent below pH 3”. For the same compound, the “difference in solubility between pH 5 and 7” value (between pH 5 to 7) was “thirty” and the “aqueous solubility with rising pH (in words)” value (up to pH 5 and from pH 5 to 7) was “gradually increases with rising pH up to 5 and linearly increases with increasing pH to 7”.
